Data on 3 compounds can be found in US4631270A, “Therapeutically useful pseudopeptides, compositions containing the same and methods of preparation and use” (priority 1985, dated 1986).

For series [1] the following is noted: rapid destruction by proteolysis; cited from earlier work.
Series [2] deals with Swiss Wistar mice. In words: Acute toxicity and weight gain of Swiss Wistar mice injected I.P. The series is classed as in vivo. Conditions: dose levels 44-432 mg/Kg, five mice per dose level. The protocol:
One example of the low toxicity of the compounds of this invention is the results achieved with mice on treatment with Gly .PSI. Leu. In the test Swiss Wistar mice were injected I.P. with Gly .PSI. Leu at the dose levels indicated below. Five mice were tested at each dose level. […] The behavior of the animals was observed closely for 7 days after injection.

For series [3], the system named is methionine adenosyl transferase (MAT). The text has this: Possible mutagenic effects of pseudodipeptides were examined two ways. One possible route for a metabolic complication is via the action of methionine adenosyl transferase (MAT). Ethionine (which contains a thiomethylene linkage) is known to be both a carcinogen and a substrate for MAT.
For series [4], the system named is repair-deficient strains of Bacillus subtilis. As to the kind of experiment: Mutagenicity test, variation of the Ames test (overall result). The series is classed as cell-based. Conditions: results of Table 2b. The protocol:
(§1) The mutagenicity of Gly .PSI. Leu and Gly .PSI. Ile was examined by a variation of the Ames test using repair-deficient strains of Bacillus subtilis.
(§2) The specific procedures by which these tests were conducted are described in the following references: […]
On the technique in general: In the Ames test, an excess of revertant colonies over the control signals mutagenicity.

For series [5], the system named is Wild type. As to the kind of experiment: Mutagenicity test, growth inhibition, wild type strain. The series is classed as cell-based, Bacillus subtilis. The following applies: concentration 0.1 M. The protocol: as §1, §2
Series [6] relates to MC-1. As to the kind of experiment: Mutagenicity test, growth inhibition, strain MC-1. It is filed as cell-based, Bacillus subtilis. Conditions: concentration 0.1 M. The protocol: as §1, §2
The subject of series [7] is Hcr-9. In words: Mutagenicity test, growth inhibition, strain Hcr-9. It is filed as cell-based, Bacillus subtilis. Here is the method:
as §1, §2

Series [8] deals with FB-13. As to the kind of experiment: Mutagenicity test, growth inhibition, strain FB-13. The series is classed as cell-based, Bacillus subtilis. The following applies: concentration 0.1 M. The protocol:
as §1, §2

The test system of series [9] is Pol A. In words: Mutagenicity test, growth inhibition, strain Pol A. The series is classed as cell-based, Bacillus subtilis. The following applies: concentration 0.1 M. Here is the method: as §1, §2

Where two headings read alike, the source gives them in different places.

“pGlu-His-Trp-Ser-Tyr-Gly-Leu-Arg-Pro-Gly-NH2 [Luteinizing hormone-releasing hormone]”: the biological half-life in [1] is listed as 2 min.
In the case of `CC(C)CC(SCCN)C(=O)O` (centres unmarked) [Gly .PSI. Leu, pseudoglycylleucine], the “signs of acute toxicity” value in series [2] is reported as “In no case did any of the mice show any signs of acute toxicity”. Also, the Counts/Min transferred was 16,620 Counts/Min in [3] (Expt I, concentration 12 mM, None = 15,760) and 7,990 Counts/Min in series [3] (Expt II, concentration 80 mM, None = 7,380). In [3] (possible substrate or competitive inhibitor of MAT), the “effect on MAT activity” value is on record as “neither Gly .PSI. Leu nor Gly .PSI. D-Leu has a measurable effect on MAT activity”. Moreover, in series [4], the mutagenicity result is “neither Gly .PSI. Leu nor Gly .PSI. Ile behaves as a mutagen”. Further, the “Growth Inhibition of Bacterial Strains in mm, Wild type” value in series [5] stood at 0 mm. The “Growth Inhibition of Bacterial Strains in mm, MC-1” value in series [6] is listed as 0 mm. For the same compound, in series [7] (concentration 0.1 M), the “Growth Inhibition of Bacterial Strains in mm, Hcr-9” value came out at 0 mm. The “Growth Inhibition of Bacterial Strains in mm, FB-13” value in series [8] came out at 0 mm. Besides, the “Growth Inhibition of Bacterial Strains in mm, Pol A” value in series [9] amounted to 0 mm.
For the compound `CC[C@H](C)[C@H](SCCN)C(=O)O` [Gly .PSI. Ile], the mutagenicity result in series [4] was “neither Gly .PSI. Leu nor Gly .PSI. Ile behaves as a mutagen”. Besides, the “Growth Inhibition of Bacterial Strains in mm, Wild type” value in [5] is 0 mm. In addition, in series [6], the “Growth Inhibition of Bacterial Strains in mm, MC-1” value is 0 mm. Also, the “Growth Inhibition of Bacterial Strains in mm, Hcr-9” value in [7] was 0 mm. In series [8], the “Growth Inhibition of Bacterial Strains in mm, FB-13” value is given as 0 mm. The “Growth Inhibition of Bacterial Strains in mm, Pol A” value in series [9] is 0 mm.
